We go through five compounds from ChEMBL document CHEMBL1140744, “Binding of serotonin and N1-benzenesulfonyltryptamine-related analogs at human 5-HT6 serotonin receptors: receptor modeling studies” (J Med Chem, 2008).

The structures appear in SMILES notation. pKi: −log10 of the molar value.

The target of this assay is 5-hydroxytryptamine receptor 6 (Homo sapiens, UniProt P50406). The experiment in a line: Displacement of [3H]LSD from human 5HT6 receptor expressed in HEK293 cells. The assay is classed as cell-based. A general note: Displacement assays read how much labelled ligand stays bound in the presence of the test substance.
Chain of 5-hydroxytryptamine receptor 6 (P50406 whole entry): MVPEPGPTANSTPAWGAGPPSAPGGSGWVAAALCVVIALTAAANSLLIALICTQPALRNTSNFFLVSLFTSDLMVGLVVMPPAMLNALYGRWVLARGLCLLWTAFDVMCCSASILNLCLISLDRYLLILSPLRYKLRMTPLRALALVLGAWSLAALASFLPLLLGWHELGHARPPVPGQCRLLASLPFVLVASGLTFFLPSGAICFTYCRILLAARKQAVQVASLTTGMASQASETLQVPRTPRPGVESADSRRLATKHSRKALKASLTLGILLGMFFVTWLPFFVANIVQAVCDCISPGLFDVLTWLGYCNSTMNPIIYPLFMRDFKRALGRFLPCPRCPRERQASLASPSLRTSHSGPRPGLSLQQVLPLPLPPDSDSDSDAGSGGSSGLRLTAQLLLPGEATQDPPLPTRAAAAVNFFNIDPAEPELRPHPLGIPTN
Compound `CN(C)[C@H]1CCc2c(cccc2NS(=O)(=O)c2ccccc2)C1` gave a pKi of 7.05. Regarding `CN(C)CCc1cn(Sc2ccccc2)c2ccccc12`, the pKi is 7.05.

With `CN(C)[C@@H]1CCc2c(cccc2NS(=O)(=O)c2ccccc2)C1`, the pKi is 7.31. `CCc1[nH]c2ccc(OC)cc2c1C[C@@H]1CCCN1C` showed a negative-log Ki (pKi) of 6.66. To `CCc1[nH]c2ccc(OC)cc2c1C[C@H]1CCCN1C` belongs 8.74.

The term pKi denotes −log10 of the Ki, conventionally taken in molar units.
